Results on 40 compounds are retold here after patent publication US20090264384A1, “INDOLE, BENZIMIDAZOLE, AND BENZOLACTAM BORONIC ACID COMPOUNDS, ANALOGS THEREOF AND METHODS OF USE THEREOF” (Nuada, Inc., priority 2004, published 2009).

Structures are written as SMILES. pIC50: −log10 of the molar value.

The first data set in a line: Various In Vitro Cell Biology Assays (Example 41, Tables 23-26). It is filed as cell-based. Particulars: IL-6 secretion (h) (PBMC), LPS 1 μg/ml, 24 h; 3×10^−6 M. The protocol:
In each experiment, the respective reference compound was tested concurrently with the test compounds in order to assess the assay suitability. It was tested at several concentrations (for IC50 value determination).
The test compounds were assayed at 3×10^−6 M.
Results. The results are expressed as a percent of control values and as a percent inhibition of control values obtained in the presence of the test compounds.
The IC50 values (concentration causing a half-maximal inhibition of control values) and Hill coefficients (nH) were determined by non-linear regression analysis of the inhibition curves using Hill equation curve fitting, a summary of the data is shown in Table 26. The IC50 value for each reference compound is indicated was determined (data not shown) and was within accepted limits of the historic average ±0.5 log units.
In the case of `C[C@@H]1CC2C3CCC4=CC(=O)C=CC4(C)C3(F)[C@@H](O)CC2(C)C1(O)C(=O)CO` (some centres unmarked) [drawing 92], the “% Inhibition of Control Values” was determined as 57%. Same read-out and setting: the value for `OB(O)CCCCCn1c(-c2cscn2)nc2ccccc21` [drawing 90] was −61%. Turning to `C[C@@H]1CC2C3CCC4=CC(=O)C=CC4(C)C3(F)[C@@H](O)CC2(C)C1(O)C(=O)CO` (some centres unmarked) [drawing 93], the “% Inhibition of Control Values” is recorded as −70%. Still for that read-out and setting: the value for `OB(O)CCCCCn1c(-c2cscn2)nc2ccccc21` [CCI-7034] was −89%.

The data set is the same for the next values; noted with them: PBMC, 24 h, IFN-γ secretion (h) (PBMC), PHA 2 μg/ml, 24 h; 3×10^−6 M; read-out: % Inhibition of Control Values.
For the compound `OB(O)CCCCn1c(C(F)(F)F)nc2ccccc21` [drawing 71], the inhibition at 3 µM was -6%. For the compound `Nc1nc(Cl)c2ncn(CCCCCB(O)O)c2n1` [drawing 73], the inhibition at 3 µM was 56%.

With `C[C@@H]1CC2C3CCC4=CC(=O)C=CC4(C)C3(F)[C@@H](O)CC2(C)C1(O)C(=O)CO` (some centres unmarked) [drawing 72], the inhibition at 3 µM is 68%. With `N#Cc1ncnc2c1ncn2CCCCCB(O)O` [drawing 74], the inhibition at 3 µM came out at 14%. On to `N#Cc1ccc2c(ccn2CCCCCB(O)O)c1` [drawing 70], for which the inhibition at 3 µM worked out at 16%. Same read-out and setting: the value for `OB(O)CCCCCn1c(-c2cscn2)nc2ccccc21` [drawing 69] was 21%.

Still in this data set, the particulars now being: PBMC, 24 h, IL-1 □ secretion (h) (PBMC), LPS 1 μg/ml, 24 h; 3×10^−6 M; read-out: % Inhibition of Control Values.
On to `N#Cc1ncnc2c1ncn2CCCCCB(O)O` [drawing 79], for which the inhibition at 3 µM is -66%.

Turning to `OB(O)CCCCCn1c(-c2cscn2)nc2ccccc21` [drawing 75], the inhibition at 3 µM is -67%.

For the compound `C[C@@H]1CC2C3CCC4=CC(=O)C=CC4(C)C3(F)[C@@H](O)CC2(C)C1(O)C(=O)CO` (some centres unmarked) [drawing 78], the inhibition at 3 µM is -12%.

The data set is the same for the next values; noted with them: PBMC, 24 h, IL-6 secretion (h) (PBMC), LPS 1 μg/ml, 24 h; 3×10^−6 M; read-out: % Inhibition of Control Values.
With `OB(O)CCCCn1c(C(F)(F)F)nc2ccccc21` [drawing 91], the inhibition at 3 µM was -26%. As to `N#Cc1ncnc2c1ncn2CCCCCB(O)O` [drawing 94], the inhibition at 3 µM was -30%.

The same data set, now with this note: PBMC, 24 h, IL-8 secretion (h) (PBMC), LPS 1 μg/ml, 24 h; 3×10^−6 M; read-out: % Inhibition of Control Values.
Take `N#Cc1ncnc2c1ncn2CCCCCB(O)O` [drawing 104]: the inhibition at 3 µM was -33%. On the same count and under the same terms, the value for `OB(O)CCCCn1c(C(F)(F)F)nc2ccccc21` [drawing 101] was -29%.

For the compound `Nc1nc(Cl)c2ncn(CCCCCB(O)O)c2n1` [drawing 103], the inhibition at 3 µM came out at 8%. Same read-out and setting: the result for `C[C@@H]1CC2C3CCC4=CC(=O)C=CC4(C)C3(F)[C@@H](O)CC2(C)C1(O)C(=O)CO` (some centres unmarked) [drawing 102] reads 67%; that for `N#Cc1ccc2c(ccn2CCCCCB(O)O)c1` [drawing 100], -63%. Take `OB(O)CCCCCn1c(-c2cscn2)nc2ccccc21` [CCI-7034]: the inhibition at 3 µM was -32%.

Staying with this data set, now noted: PBMC, 48 h, IL-2 secretion (h) (PBMC), PHA 20 μg/ml, 48 h; 3×10^−6 M; read-out: % Inhibition of Control Values.
Consider `OB(O)CCCCCn1c(-c2cscn2)nc2ccccc21` [drawing 81], for which the inhibition at 3 µM is 56%. On the same count and under the same terms, the result for `N#Cc1ncnc2c1ncn2CCCCCB(O)O` [CCI-7048] reads 23%; that for `Nc1nc(Cl)c2ncn(CCCCCB(O)O)c2n1` [drawing 84], 78%; that for `OB(O)CCCCn1c(C(F)(F)F)nc2ccccc21` [drawing 82], 72%. On to `C[C@@H]1CC2C3CCC4=CC(=O)C=CC4(C)C3(F)[C@@H](O)CC2(C)C1(O)C(=O)CO` (some centres unmarked) [drawing 83], for which the inhibition at 3 µM stood at 18%.

The data set is the same for the next values; noted with them: PBMC, 48 h, IL-4 secretion (h) (PBMC), ConA 20 μg/ml, 48 h; 3×10^−6 M; read-out: % Inhibition of Control Values.
In the case of `Nc1nc(Cl)c2ncn(CCCCCB(O)O)c2n1` [drawing 89], the inhibition at 3 µM is -30%. Take `C[C@@H]1CC2C3CCC4=CC(=O)C=CC4(C)C3(F)[C@@H](O)CC2(C)C1(O)C(=O)CO` (some centres unmarked) [drawing 88]: the inhibition at 3 µM came out at 118%. Still for that read-out and setting: the result for `N#Cc1ncnc2c1ncn2CCCCCB(O)O` [CCI-7048] reads -45%.

Staying with this data set, now noted: PBMC, 48 h, IL-10 secretion (h) (PBMC), PHA 3 μg/ml, 48 h; 3×10^−6 M; read-out: % Inhibition of Control Values.
Regarding `N#Cc1ccc2c(ccn2CCCCCB(O)O)c1` [drawing 95], the inhibition at 3 µM was 36%.

Turning to `OB(O)CCCCn1c(C(F)(F)F)nc2ccccc21` [drawing 96], the inhibition at 3 µM worked out at 17%.

For `C[C@@H]1CC2C3CCC4=CC(=O)C=CC4(C)C3(F)[C@@H](O)CC2(C)C1(O)C(=O)CO` (some centres unmarked) [drawing 97], the inhibition at 3 µM worked out at 62%. The same measure, in the same setting: the result for `N#Cc1ncnc2c1ncn2CCCCCB(O)O` [drawing 99] reads 13%; that for `OB(O)CCCCCn1c(-c2cscn2)nc2ccccc21` [CCI-7034], 42%.

Still in this data set, the particulars now being: TNF-α secretion (h) (PBMC), LPS 1 μg/ml, 24 h.
`C[C@@H]1CC2C3CCC4=CC(=O)C=CC4(C)C3(F)[C@@H](O)CC2(C)C1(O)C(=O)CO` (some centres unmarked) [drawing 114] gave a pIC50 of 7.44. With `OB(O)CCCCCn1c(-c2cscn2)nc2ccccc21` [drawing 111], the pIC50 was under 5.52. `COc1ccc(-c2nc3ccccc3n2CCCCCB(O)O)cc1` [drawing 110] showed a pIC50 of 6.70. Same read-out and setting: the value for `N#Cc1ccc2c(ccn2CCCCCB(O)O)c1` [drawing 112] was 5.82.

Still in this data set, the particulars now being: human; Cell viability (h) (PBMC/24 h), MTT; 3×10^−6 M.
As for `N#Cc1ncnc2c1ncn2CCCCCB(O)O` [drawing 109], the cytotoxicity at 24 h worked out at 5%. Consider `C[C@@H]1CC2C3CCC4=CC(=O)C=CC4(C)C3(F)[C@@H](O)CC2(C)C1(O)C(=O)CO` (some centres unmarked) [drawing 107], for which the cytotoxicity at 24 h was 6%. Regarding `Nc1nc(Cl)c2ncn(CCCCCB(O)O)c2n1` [drawing 108], the cytotoxicity at 24 h amounted to 6%.

For the compound `N#Cc1ccc2c(ccn2CCCCCB(O)O)c1` [drawing 105], the cytotoxicity at 24 h was found to be 0%. Same read-out and setting: the result for `OB(O)CCCCn1c(C(F)(F)F)nc2ccccc21` [drawing 106] reads -6%; that for `OB(O)CCCCCn1c(-c2cscn2)nc2ccccc21` [CCI-7034], -9%.
